Results on four molecules are retold here after patent publication US20220218800A1, “BETA-LACTAMASE COMPOSITIONS FOR TREATMENT OF GRAFT VERSUS HOST DISEASE” (Synthetic Biologics, Inc., priority 2019, published 2022).

Experiment [1] can be described thus: Piperacillin levels in mouse stool after s.c. piperacillin/tazobactam with or without oral P3A. The experiment is classed as in vivo, mice. Conditions: piperacillin/tazobactam 500 mg/kg s.c. twice per day for two days + P3A liquid formulation 10 mg/kg oral gavage twice per day for two days; FIG. 1. The procedure: Mice received a subcutaneous administration of 500 mg/kg piperacillin/tazobactam twice per day for two days. […] A control cohort of mice received neither piperacillin/tazobactam nor P3A via oral gavage.
After 2 days, mouse stool was evaluated for presence of piperacillin.

The subject of experiment [2] is Firmicutes bacterial phylum. The experiment is described as follows: 16S sequencing of mouse stool: Firmicutes level, piperacillin/tazobactam with or without P3A. The experiment is classed as in vivo, mice. Conditions: FIG. 2. The procedure: (§1) Mice received a subcutaneous administration of 125 mg/kg piperacillin/tazobactam twice per day for two days. […] A control cohort of mice received neither piperacillin/tazobactam nor P3A via oral gavage. Another control cohort of mice received P3A only.

Experiment [3] deals with total bacteria. Briefly: 16S sequencing of mouse stool: total bacteria copies per gram of stool. Type of experiment: in vivo, mice. Conditions: FIG. 3. The procedure: as §1
16S sequencing analysis was also performed to evaluate the total bacteria copies present per gram of mouse stool.

The test system of experiment [4] is 129S1 mice. The experiment is described as follows: Survival study of antibiotic-exacerbated GVHD after bone marrow transplantation (P3A). The note with it: BM+T cells; piperacillin/tazobactam 100 mg/kg s.c. + P3A 20 mg/kg oral gavage three times per week from day 10; endpoint 30 days post-BMT; FIG. 4. The experiment is classed as in vivo. The procedure:
This experiment was conducted to assess the effect of SYN-004 administration on protecting and/or reducing GVHD severity associated with bone marrow transplantation.
129S1 mice were lethally irradiated and then transplanted with bone marrow cells (B6 donor bone marrow) at 5M and defined doses of splenic T lymphocytes from C57BL/6 mice at 2M. Both of these mice share the MHC-type H2b and thus represent a clinically relevant MHC-matched transplantation model.

Experiment [5] concerns Enterococcus. The experiment is described as follows: 16S sequencing of stool at day 21 post-transplantation: Enterococcus monodomination (SYN-004). The experiment is classed as in vivo, 129S1 mice. The procedure: This experiment was conducted to assess the effect of SYN-004 administration on modulating and/or reducing Enterococcus monodomination. The experiment was also designed to assess whether SYN-004 administration could prevent the decrease of microbiome diversity in lethally irradiated mice having undergone a bone marrow transplantation.
129S1 mice were lethally irradiated and then transplanted with bone marrow cells (B6 donor bone marrow) at 5M and defined doses of splenic T lymphocytes from C57BL/6 mice at 2M. The mice were divided in three cohorts: (1) a cohort that received administration of saline; (2) a cohort that received administration of piperacillin/tazobactam; and (3) a cohort that received administration of piperacillin/tazobactam (Zosyn, abbreviated as ZO) and SYN-004 (P3A; abbreviated as Blact).
Stool samples were collected at day 21 post-transplantation and 16S sequencing analysis was performed.

The subject of experiment [6] is Enterococcus. The experiment is described as follows: 16S sequencing of mouse stool: Enterococcus monodomination, imipenem+cilastatin with or without SYN-006. Conditions: FIG. 8; for largest bars (genus) in 16S analysis, post-antibiotic: post-abx; for Enterococcus monodominance in stool: vs imipenem+cilastatin only. Type of experiment: in vivo, mice. The procedure: (§2) Next, experiments were conducted to assess the effect of SYN-006 (P2A) administration on modulating and/or reducing Enterococcus monodomination, and specifically, overgrowth of Enterococcus faecium, in imipenem-treated mice.
(§3) Mice received a subcutaneous administration of 100 mg/kg imipenem+cilastatin for two days, with stool samples collected on the third day. […] Stool samples were collected on day 3 and 16S sequencing analysis was performed.

In experiment [7] the test system is Firmicutes bacterial phylum. Conditions: stool day 3, FIG. 7. The procedure:
Experiments were conducted to determine whether a liquid formulation of SYN-006 (e.g., a beta-lactamase in a phosphate-buffered saline solution) could be delivered to the small and large intestine of mice via oral gavage.
Mice received a subcutaneous administration of 100 mg/kg imipenem+cilastatin for two days, with stool samples collected on the third day.
On day 3, mouse stool was collected.

The subject of experiment [8] is Enterococcus faecium. The experiment is described as follows: Relative abundance of Enterococcus faecium in stool of imipenem-treated mice. The experiment is classed as in vivo. The note with it: imipenem+cilastatin 100 mg/kg s.c. alone or with P2A 1, 10, 50 mg/kg oral gavage; FIG. 9. How it is done:
as §2, §3

Experiment [9] concerns 129S1 mice. Briefly: Survival study of antibiotic-exacerbated GVHD after bone marrow transplantation (P2A). The experiment is classed as in vivo. The note with it: BM+T cells; imipenem+cilastatin 100 mg/kg s.c. + P2A 50 mg/kg oral gavage three times per week days 10-25; endpoint 40 days post-BMT; p=0.0096, Mantel-Cox test; FIG. 10. How it is done: This experiment was conducted to assess the effect of SYN-006 (P2A) administration on protecting and/or reducing GVHD severity associated with bone marrow transplantation.
129S1 mice were lethally irradiated and then transplanted with bone marrow cells (B6 donor bone marrow) at 5M and defined doses of splenic T lymphocytes from C57BL/6 mice at 2M. Both of these mice share the MHC-type H2^b and thus represent a clinically relevant MHC-matched transplantation model.

Where [10] appears, read: piperacillin/tazobactam 125 mg/kg s.c. + P3A 10 mg/kg oral gavage, twice per day for two days.
[11] abbreviates: piperacillin/tazobactam alone, 125 mg/kg s.c. twice per day for two days.

Like-named read-outs stand apart in the source and are kept apart here.

As to “SYN-004: beta-lactamase with the amino acid sequence of SEQ ID NO: 1; D276N relative to P1A”, the “amount of piperacillin in mouse stool” value in [1] is listed as “reduced”. The “fold abundance of Firmicutes in mouse stool” value in experiment [2] (setting [10]) is “recovered and protected”. In addition, the “total bacterial copies present in mouse stool” value in experiment [3] (setting [10]) was “decrease was reduced”. Moreover, the “survival (mortality), antibiotic-exacerbated GVHD” value in experiment [4] was “reduced antibiotic-exacerbated GVHD”. Moreover, the “largest bars (genus) in 16S analysis” value was “Clostridium” in experiment [5] (FIG. 5, Zosyn+SYN-004); “Enterococcus in the first two bars from the left and Clostridium in the next two bars from the left” in [5] (FIG. 6, BM (bone marrow) group, ZO+Blact); “Clostridium” in [5] (FIG. 6, BM+T cells group, ZO+Blact). In addition, in [5] (piperacillin/tazobactam + SYN-004 vs piperacillin/tazobactam only, day 21 post-transplantation, FIG. 5 and 6), the “Enterococcus monodominance in stool” value is “reduced Enterococcus monodominance”.
In the case of “imipenem+cilastatin [reference compound]”, the “largest bars (genus) in 16S analysis, post-antibiotic” value in experiment [6] (imipenem group (no P2A)) is “Enterococcus”.
“piperacillin/tazobactam [reference compound]”: the “abundance of Firmicutes in mouse stool” value in experiment [2] (setting [11]) is recorded as “reduced”. Also, the “total bacterial copies present in mouse stool” value in experiment [3] (setting [11]) is listed as “decreased”. In addition, the “largest bars (genus) in 16S analysis” value in experiment [5] (FIG. 5, Zosyn alone) is “Enterococcus”; in experiment [5] (FIG. 6, BM (bone marrow) group, ZO alone), “Enterococcus”; in [5] (FIG. 6, BM+T cells group, ZO alone), “Enterococcus”.

B1: SYN-006: beta-lactamase polypeptide with the sequence of SEQ ID NO: 6 (protein)
chain: ETGTISISQLNKNVWVHTELGYFNGEAVPSNGLVLNTSKGLVLVDSSWDNKLTKELIEMVEKKFQKRVTDVIITHAHADRIGGITALKERGIKAHSTALTAELAKNSGYEEPLGDLQTITSLKFGNTKVETFYPGKGHTEDNIVVWLPQYQILAGGCLVKSAEAKDLGNVADAYVNEWSTSIENVLKRYGNINSVVPGHGEVGDKGLLLHTLDLLK
modifications: Synthetic polymer.
In the case of B1, the “fold abundance of Firmicutes in mouse stool” value in experiment [7] (imipenem+cilastatin 100 mg/kg s.c. for two days + P2A 10 mg/kg oral gavage twice per day) was “recovered and protected”; in experiment [7] (imipenem+cilastatin 100 mg/kg s.c. for two days + P2A 50 mg/kg oral gavage twice per day) it was “recovered and protected”. For the same molecule, the “largest bars (genus) in 16S analysis, post-antibiotic” value in experiment [6] (imipenem+P2A (1 mg) group) was “Enterococcus”; in experiment [6] (imipenem+P2A (10 mg) group) it was “Clostridium”; in [6] (imipenem+P2A (50 mg) group) it was “Lactobacillus and Clostridium”. The “Enterococcus monodominance in stool” value in experiment [6] (imipenem+cilastatin 100 mg/kg s.c. + SYN-006 10 mg/kg oral gavage twice per day for two days) and in experiment [6] (imipenem+cilastatin 100 mg/kg s.c. + SYN-006 50 mg/kg oral gavage twice per day for two days) was “reduced Enterococcus monodominance” throughout. In [8], the “overgrowth (relative abundance) of Enterococcus faecium in mouse stool” value was “prevents overgrowth of Enterococcus faecium”. Besides, the “survival (mortality), antibiotic-exacerbated GVHD” value in [9] is on record as “reduced antibiotic-exacerbated GVHD”.
